Target: MAP kinase-interacting serine/threonine-protein kinase 1 (Homo sapiens, UniProt Q9BUB5)
Experiment: Inhibition of human full-length MKNK1 using biotin-Ahx-IKKRKLTRRKSLKG substrate by TR-FRET-based high ATP assay

MAP kinase-interacting serine/threonine-protein kinase 1, sequence (Q9BUB5 whole entry): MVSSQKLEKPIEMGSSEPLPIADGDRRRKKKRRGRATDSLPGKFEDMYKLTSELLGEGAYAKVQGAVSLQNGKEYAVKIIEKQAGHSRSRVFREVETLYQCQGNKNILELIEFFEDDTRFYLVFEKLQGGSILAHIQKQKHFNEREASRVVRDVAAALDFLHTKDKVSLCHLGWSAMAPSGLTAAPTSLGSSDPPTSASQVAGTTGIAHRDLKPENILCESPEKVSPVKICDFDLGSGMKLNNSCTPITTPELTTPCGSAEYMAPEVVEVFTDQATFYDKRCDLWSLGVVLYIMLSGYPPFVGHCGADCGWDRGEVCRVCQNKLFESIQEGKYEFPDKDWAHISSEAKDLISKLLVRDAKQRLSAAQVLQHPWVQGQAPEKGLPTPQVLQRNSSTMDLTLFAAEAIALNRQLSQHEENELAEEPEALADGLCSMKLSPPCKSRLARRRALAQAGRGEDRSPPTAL

IC50 | Structure (SMILES)
6 nM | COc1cc(Cl)c(Cl)cc1Nc1ncnc2[nH]c3c(c12)CC(C(=O)NC1CC1)CC3 (stereo unspecified)
5 nM | CC(C)Oc1cc2[nH]ncc2cc1Nc1ncnc2[nH]c3c(c12)CCCC3
6 nM | CCNC(=O)C1CCc2[nH]c3ncnc(Nc4cc5cn[nH]c5cc4OC)c3c2C1 (stereo unspecified)
1 nM | COc1cc2[nH]ncc2cc1Nc1ncnc2[nH]c3c(c12)CC(C(=O)NCc1ccccc1)CC3 (stereo unspecified)
3540 nM | O=C1OCCOc2cc(F)ccc2Nc2ncnc3[nH]c4c(c23)CC1CC4 (stereo unspecified)
1 nM | CC(C)Oc1cc2[nH]ncc2cc1Nc1ncnc2[nH]c3c(c12)CC(C(=O)NCCCS(C)(=O)=O)CC3 (stereo unspecified)

From ChEMBL document CHEMBL3352740, “Pyrrolopyrimidine Analogues as MKNK Inhibitors” (ACS Med Chem Lett, 2015)
